Measurements published in patent US9820990B2, “Methods of treating disorders associated with protein aggregation” (University of Pittsburgh—Of the Commonwealth System of …, priority 2009, dated 2017).
Where a name gives a salt, the structure may show the parent alone. Read-outs that look alike come from different tables or passages of the source.

Key:
sGFP::ATZ [1] = test: Hit compound characterization: dose-response in the sGFP::ATZ HCS assay; format: in vivo, C. elegans; parameters: key to dose-dependent response: c: Compound demonstrated a dose-dependent response.; Compound failed to demonstrate a dose-dependent response; details: for dose-dependent response: retest at 0-100 μM, 24 or 48 hours; for effect on sGFP::ATZ accumulation: dose-response, 0-100 μM
Procedure: Imaging of animals using the ArrayScan VTI: Prior to imaging, worms were anesthetized by adding 30 μl of 0.02 M NaN3 in PBS to each well. Plates were resealed, inverted twice, and incubated for 5 minutes at room temperature. Images were acquired with the ArrayScan VTI HCS Reader fitted with a 2.5× objective and a 0.63× coupler using a 2-channel (TRITC and GFP) assay. Real-time analysis was performed using the SpotDetector BioApplication optimized to quantify fluorescent protein expression in C. elegans. Image acquisition and analysis of a 384-well plate was completed in <45 minutes. The total number of animals in the well was determined by counting the number of red heads (Pmyo-2mRFP) in the TRITC channel. Total spot area or total spot intensity was determined by quantifying the GFP-positive spots in the GFP channel. Total spot area or total spot intensity per animal was determined by dividing the values from the GFP channel by that from the TRITC channel.
Hit compound characterization: Compounds that were identified as potential hits were purchased (if available) and retested for verification. […] Compounds that produced a response in a dose-dependent manner were further tested for a time-dependent response. Compound dose-response curves were performed by dispensing 15 μl of a 4× stock solution into 384-well plates containing 15 μl of assay medium (see above). Thirty-five animals were sorted into each well bringing the volume to ˜60 μl. The final compound concentrations in each well varied from 0-100 μM. Assay plates were incubated in a 22° C. incubator for 24 or 48 hours. Each compound was tested in quadruplicate in at least 2 independent experiments.
Statistical evaluation: Statistical evaluation of data was performed using Prism® (Graphpad Software). The significance of actual and predicted data in FIGS. 12, 14 and 15 was determined using a linear regression analysis and comparing the slope and goodness-of-fit (r2) values. Statistical significance of the spot count, spot area and spot intensity values between N2 (wild-type) and various transgenic lines in FIG. 13 and dose-response in FIG. 17 was determined using an unpaired, one-tailed, Student's t-test.
Compound screen: To test the HCS protocol, a pilot drug screen was performed using the library of pharmacologically active compounds (LOPAC1280™ 1280 compounds). Tight gating parameters for total fluorescence were used to sort 35 young adult Pnhx2sGFP::ATZ animals into wells of 384-well plates containing […] of a LOPAC compound and 0.5% DMSO. Pnhx2sGFP::ATZ animals incubated with 0.5% DMSO served as untreated controls and were placed in the first-two and last-two columns of each plate. In a representative experiment, plate 1 of the LOPAC library was set-up for screening on day 1, and 3 other plates were set-up on the next day. After 24 incubation at 25° C., animals were immobilized by the addition of NaAz and placed in the ArrayScan VTI for automated imaging. To examine for systematic errors, the raw data (total spot area/animal) were depicted as a plate-well scatter plot (FIG. 17A). […] This difference reflects a wider sort-window used to collect animals on day 1 in comparison to that used on day 2. As the average values of the negative controls and that of the sample wells were similar, we combined the control and samples wells for normalization and to identify potential hits using the z-score (FIG. 17B). The ArrayScan VTI reads microtiter plates by rows, alternating from left-to-right, and then right-to-left. For some assays, we noted that the control fluorescence values would drift upwards slightly in rows towards the bottom of the plate. This drift appeared to correlate with an increase in chamber temperature during the scanning period and was minimized by cooling the chamber with a fan or shortening the read times by using 2.5× objective with a 0.6 coupler. Nonetheless, intra-plate variation was controlled for by presenting the data as a B-score (FIG. 17C). […]

sGFP::ATZ [2] = test: LOPAC library high-content primary screen for sGFP::ATZ accumulation in transgenic animals; format: in vivo, C. elegans; details: for Rank-score: 24 h
[3] = among compounds that increased ATZ accumulation, based on relative rank-scores
[4] = average of compound rankings by ascending B-score from two independent screens, 50 μM, <110 decreased, >1225 increased sGFP::ATZ inclusions
[5] = among compounds that decreased ATZ accumulation, based on relative rank-scores

CC(=O)c1c(O)c(C)c(O)c(Cc2c(O)c3c(c(C(=O)/C=C/c4ccccc4)c2O)OC(C)(C)C=C3)c1O [rottlerin]
dose-dependent response (sGFP::ATZ [1]): rottlerin^c | Overall rank-order (sGFP::ATZ [2]; [3]): 15 | Rank-score (sGFP::ATZ [2]; [4]): 1229.5

COc1cccc(C(=O)NCCN2CCN(c3ccc(Cl)cc3)CC2)c1 [N-(2-[4-(4-Chlorophenyl)piperazin-1-yl]ethyl)-3-methoxybenzamide]
Overall rank-order (sGFP::ATZ [2]; [5]): 8 | Rank-score (sGFP::ATZ [2]; [4]): 41.5

CN[C@@H]1C[C@@H](c2ccc(Cl)c(Cl)c2)c2ccccc21 [indatraline hydrochloride]
Overall rank-order (sGFP::ATZ [2]; [5]): 28 | Rank-score (sGFP::ATZ [2]; [4]): 93.0

CCCCOC(=O)NS(=O)(=O)c1sc(CC(C)C)cc1-c1ccc(Cn2c(CC)nc3c(C)cc(C)nc32)cc1 [L-162,313]
Overall rank-order (sGFP::ATZ [2]; [3]): 9 | Rank-score (sGFP::ATZ [2]; [4]): 1238.0

Cc1cnc(C(=O)NCCc2ccc(S(=O)(=O)NC(=O)NC3CCCCC3)cc2)cn1 [glipizide]
dose-dependent response (sGFP::ATZ [1]): glipizide^d | Overall rank-order (sGFP::ATZ [2]; [3]): 12 | Rank-score (sGFP::ATZ [2]; [4]): 1234.0

CN1CCN(CCCN2c3ccccc3Sc3ccc(Cl)cc32)CC1 [prochlorperazine dimaleate]
Overall rank-order (sGFP::ATZ [2]; [5]): 31 | Rank-score (sGFP::ATZ [2]; [4]): 103.5

C[N+]1(C)CCc2cc3c(cc2[C@H]1[C@@H]1OC(=O)c2c1ccc1c2OCO1)OCO3.[Br-] [(−)-bicuculline methbromide, 1(S), 9(R)]
Overall rank-order (sGFP::ATZ [2]; [5]): 26 | Rank-score (sGFP::ATZ [2]; [4]): 89.5

CCCN(CCC)[C@H]1CCc2c(F)ccc(O)c2C1.Cl [S(−)-UH-301 hydrochloride]
Overall rank-order (sGFP::ATZ [2]; [5]): 17 | Rank-score (sGFP::ATZ [2]; [4]): 65.0

Cn1ccc2cc3c(cc21)CCN3C(=O)Nc1cccnc1 [SB 206553 hydrochloride]
Overall rank-order (sGFP::ATZ [2]; [5]): 11 | Rank-score (sGFP::ATZ [2]; [4]): 56.0

CC(C)C[C@H]1C(=O)N2CCC[C@H]2[C@]2(O)O[C@](NC(=O)[C@@H]3C=C4c5cccc6[nH]c(Br)c(c56)C[C@H]4N(C)C3)(C(C)C)C(=O)N12.CS(=O)(=O)O [(+)-bromocriptine methanesulfonate]
Overall rank-order (sGFP::ATZ [2]; [3]): 8 | Rank-score (sGFP::ATZ [2]; [4]): 1240.5

C[C@](N)(Cc1ccc(O)c(O)c1)C(=O)O [L-alpha-methyl DOPA]
Overall rank-order (sGFP::ATZ [2]; [5]): 18 | Rank-score (sGFP::ATZ [2]; [4]): 72.5

ivermectin
dose-dependent response (sGFP::ATZ [1]): ivermectin^d | Overall rank-order (sGFP::ATZ [2]; [5]): 1 | Rank-score (sGFP::ATZ [2]; [4]): 2.0

NC(=Nc1ccccc1)NC(=O)c1nc(Cl)c(N)nc1N [phenamil methanesulfonate]
dose-dependent response (sGFP::ATZ [1]): phenamil methanesulfonate^d | Overall rank-order (sGFP::ATZ [2]; [5]): 13 | Rank-score (sGFP::ATZ [2]; [4]): 57.5

Cc1c(CC(C)(C)C(=O)O)n(Cc2ccc(Cl)cc2)c2ccc(F)cc12 [L-655,240]
Overall rank-order (sGFP::ATZ [2]; [5]): 3 | Rank-score (sGFP::ATZ [2]; [4]): 10.5

CN(C)CCC=C1c2ccccc2COc2ccccc21 [doxepin hydrochloride]
dose-dependent response (sGFP::ATZ [1]): doxepin hydrochloride^d | Overall rank-order (sGFP::ATZ [2]): 15 | Rank-score (sGFP::ATZ [2]; 50 µM): 61.0

O=C1Nc2ccccc2/C1=C1/Nc2ccccc2/C1=N\O [indirubin-3′-oxime]
Overall rank-order (sGFP::ATZ [2]; [5]): 25 | Rank-score (sGFP::ATZ [2]; [4]): 85.0

COc1[nH]c2ccc(F)cc2c1C(=O)OCC1CCN(CCNS(C)(=O)=O)CC1.NS(=O)(=O)O [GR 125487 sulfamate salt]
Overall rank-order (sGFP::ATZ [2]; [5]): 4 | Rank-score (sGFP::ATZ [2]; [4]): 24.0

CS(=O)(=O)O.Cc1c(C(=O)c2cccc3ccccc23)c2cccc3c2n1[C@H](CN1CCOCC1)CO3 [(R)-(+)-WIN 55,212-2 mesylate]
Overall rank-order (sGFP::ATZ [2]; [3]): 14 | Rank-score (sGFP::ATZ [2]; [4]): 1231.0

CC(C)(C)c1cc(/C=C(\C#N)C(N)=S)cc(C(C)(C)C)c1O [tyrphostin AG 879]
effect on sGFP::ATZ accumulation (sGFP::ATZ [1]): increased | effect on sGFP::ATZ accumulation (sGFP::ATZ [1]; listed as tyrphostatin): increase in sGFP::ATZ accumulation | dose-dependent response (sGFP::ATZ [1]): tyrphostin AG 879^c | Overall rank-order (sGFP::ATZ [2]; [3]): 10 | Rank-score (sGFP::ATZ [2]; [4]): 1236.5

NCCc1c[nH]c2ccc(C(N)=O)cc12.O=C(O)/C=C\C(=O)O [5-carboxamidotryptamine maleate]
Overall rank-order (sGFP::ATZ [2]; [5]): 29 | Rank-score (sGFP::ATZ [2]; [4]): 95.5

N#CC(C#N)=C(N)/C(C#N)=C/c1ccc(O)cc1 [tyrphostin AG 112]
Overall rank-order (sGFP::ATZ [2]; [5]): 30 | Rank-score (sGFP::ATZ [2]; [4]): 98.0

O=c1[nH]c2cc(Cl)ccc2c(O)c1-c1cccc(Oc2ccccc2)c1 [L-701,324]
Overall rank-order (sGFP::ATZ [2]; [5]): 12 | Rank-score (sGFP::ATZ [2]; [4]): 57.5

Cc1nc(-c2ccc(-c3ccc(C(=O)N4CCc5cc6c(cc54)C4(CCN(C)CC4)CO6)cc3)c(C)c2)no1 [SB 224289 hydrochloride]
Overall rank-order (sGFP::ATZ [2]; [3]): 3 | Rank-score (sGFP::ATZ [2]; [4]): 1255.0

C#C[C@]1(O)CC[C@H]2[C@@H]3CCC4=Cc5nc6nc7ccccc7n6cc5C[C@]4(C)[C@H]3CC[C@@]21C [WIN 62,577]
Overall rank-order (sGFP::ATZ [2]; [3]): 12 | Rank-score (sGFP::ATZ [2]; [4]): 1233.5

CCCC(=O)NCCc1c2n(c3ccc(OC)cc13)Cc1ccccc1-2 [IIK7]
Overall rank-order (sGFP::ATZ [2]; [3]): 11 | Rank-score (sGFP::ATZ [2]; [4]): 1236.5

CCN(CC)C(C)C(=O)N1c2ccccc2Sc2ccccc21.Cl (stereo not drawn) [10-(alpha-diethylaminopropionyl)-phenothiazine hydrochloride]
Overall rank-order (sGFP::ATZ [2]; [5]): 21 | Rank-score (sGFP::ATZ [2]; [4]): 75.5

NCc1cc(=O)[nH]o1 [muscimol hydrobromide]
Overall rank-order (sGFP::ATZ [2]; [5]): 5 | Rank-score (sGFP::ATZ [2]; [4]): 28.0

Cl.N[C@@H](CCl)C(=O)O [beta-chloro-L-alanine hydrochloride]
Overall rank-order (sGFP::ATZ [2]; [5]): 16 | Rank-score (sGFP::ATZ [2]; [4]): 61.5

Cl.Cl.OCCN1CCN(CC/C=C2/c3ccccc3Sc3ccc(C(F)(F)F)cc32)CC1 [cis-(Z)-flupenthixol dihydrochloride]
Overall rank-order (sGFP::ATZ [2]; [5]): 20 | Rank-score (sGFP::ATZ [2]; [4]): 74.0

COc1ccc(C2CNC(=O)C2)cc1OC1CCCC1 (stereo not drawn) [rolipram]
Overall rank-order (sGFP::ATZ [2]; [5]): 14 | Rank-score (sGFP::ATZ [2]; [4]): 58.0

O=S(=O)(c1cccc2cnccc12)N1CCNCC1 [HA-100]
Overall rank-order (sGFP::ATZ [2]; [5]): 10 | Rank-score (sGFP::ATZ [2]; [4]): 52.5

CC1=C(C(=O)O)N2C(=O)[C@@H](NC(=O)[C@H](N)C3=CCC=CC3)[C@H]2SC1 [cephradine]
Overall rank-order (sGFP::ATZ [2]; [5]): 27 | Rank-score (sGFP::ATZ [2]; [4]): 90.0

COc1cc(OC)c(C=C2C(O)=Nc3ccccc32)c(OC)c1 [IC 261]
Overall rank-order (sGFP::ATZ [2]; [3]): 5 | Rank-score (sGFP::ATZ [2]; [4]): 1253.5

Clc1ccccc1C(c1ccccc1)(c1ccccc1)n1ccnc1 [clotrimazole]
Overall rank-order (sGFP::ATZ [2]): 4 | Rank-score (sGFP::ATZ [2]; 50 µM): 1255.0

CN(C)c1cc2c(Nc3ccc4c(cnn4Cc4ccccc4)c3)ncnc2cn1 [GW2974]
Overall rank-order (sGFP::ATZ [2]; [3]): 1 | Rank-score (sGFP::ATZ [2]; [4]): 1263.0
